Laboratory results reported in patent publication US20120309798A1, “Tumour Treatment Agents and Method” (Vivolux AB, priority 2009, published 2012).
Read-outs that look alike come from different tables or passages of the source.

How the values were obtained:
[1] = system: ALL (Acute Lymphocytic Leukemia) patient tumor cells; experiment: Fluorometric Microculture Cytotoxicity Assay (FMCA), patient tumor samples, ALL; assay type: cell-based; conditions: Homo sapiens, range over n=21 samples
Description: (§1) Cell culture. Patient tumor samples (98) and preparations (4) of normal peripheral blood mononuclear cells (PBMC), detailed in Table 1, were used to determine the activity of VLX50 and, for comparison, six other cytotoxic drugs chosen to represent different mechanistic classes.
(§2) The tumor samples were obtained by bone marrow/peripheral blood sampling, routine surgery or diagnostic biopsy. Leukemic cells and PBMCs were isolated by 1.077 g ml-1 Ficoll-Paque centrifugation (Larsson et al., 1992). Tumor tissue from solid tumor samples was minced into small pieces and tumor cells were isolated by collagenase dispersion followed by Percoll density gradient centrifugation (Csoka et al., 1994). […] Cell viability was determined by trypan blue exclusion test and the proportion of tumor cells in the preparation was judged by inspection of May-Grunvald-Giemsa stained cytospin slides (FIG. 1a). […]
(§3) Fluorometric Microculture Cytotoxicity Assay. The Fluorometric Microculture Cytotoxicity Assay, FMCA, described in detail previously (Lindhagen et al., 2008), is based on measurement of fluorescence generated from hydrolysis of fluorescein diacetate (FDA) to fluorescein by cells with intact plasma membranes. […] Quality criteria for a successful assay included a mean coefficient of variation of less than 30% in the control and a fluorescence signal in control wells of more than 5 times the blank. […]

[2] = system: CLL (Chronic Lymphocytic Leukemia) patient tumor cells; experiment: FMCA, patient tumor samples, CLL; assay type: cell-based; conditions: Homo sapiens, range over n=9 samples
Description: as §1, §2, §3

[3] = system: NHL (Non-Hodgkins Lymphoma) patient tumor cells; experiment: FMCA, patient tumor samples, NHL; assay type: cell-based; conditions: Homo sapiens, range over n=13 samples
Description: as §1, §2, §3

[4] = system: Renal cancer patient tumor cells; experiment: FMCA, patient tumor samples, renal cancer; assay type: cell-based; conditions: Homo sapiens
Description: as §1, §2, §3

[5] = system: normal peripheral blood mononuclear cells (PBMC); experiment: FMCA, normal peripheral blood mononuclear cells; assay type: cell-based; conditions: Homo sapiens
Description: as §1, §2, §3

[6] = system: cells from CLL and normal PBMC; experiment: Tumor cell specificity: drug effect in CLL cells versus normal PBMC, FMCA; assay type: cell-based, human; conditions: PBMC n=4, CLL n=9; FIG. 2c
Description: as §1
The tumor samples were obtained by bone marrow/peripheral blood sampling, routine surgery or diagnostic biopsy. Leukemic cells and PBMCs were isolated by 1.077 g ml-1 Ficoll-Paque centrifugation (Larsson et al., 1992). Tumor tissue from solid tumor samples was minced into small pieces and tumor cells were isolated by collagenase dispersion followed by Percoll density gradient centrifugation (Csoka et al., 1994). The sampling of primary tumor cells was approved by the local ethics committee at Uppsala University Hospital. Cell viability was determined by trypan blue exclusion test and the proportion of tumor cells in the preparation was judged by inspection of May-Grunvald-Giemsa stained cytospin slides (FIG. 1a). All samples used in this study contained more than 70% tumor cells.
Fluorometric Microculture Cytotoxicity Assay. The Fluorometric Microculture Cytotoxicity Assay, FMCA, described in detail previously (Lindhagen et al., 2008), is based on measurement of fluorescence generated from hydrolysis of fluorescein diacetate (FDA) to fluorescein by cells with intact plasma membranes. Cells were seeded in the drug-prepared 384-well plates using the pipetting robot Precision 2000 (Bio-Tek Instruments Inc., Winooski, Vt.). The number of cells per well were 2500-5000. Two columns without drugs served as controls and one column with medium only served as blank. The plates were incubated for 72 h and then transferred to an integrated HTS SAIGAN Core System consisting of an ORCA robot (Beckman Coulter) with CO2 incubator (Cytomat 2C, Kendro, Sollentuna, Sweden), dispensor module (Multidrop 384, Titertek, Huntsville, Ala.), washer module (ELx 405, Bio-Tek Instruments Inc), delidding station, plate hotels, barcode reader (Beckman Coulter), liquid handler (Biomek 2000, Beckman Coulter) and a multipurpose reader (FLUOstar Optima, BMG Labtech GmbH, Offenburg, Germany) for automated FMCA. Quality criteria for a successful assay included a mean coefficient of variation of less than 30% in the control and a fluorescence signal in control wells of more than 5 times the blank.
Dose-response data were analyzed using calculated survival index values and the software program GraphPadPrism4 (GraphPad Software Inc., San Diego, Calif., USA). Data was processed using non-linear regression to a standard sigmoidal dose-response model to obtain IC50-values (inhibitory concentration 50%).
In FIG. 2a the response rates for VLX50 at 4 μM for the patient samples are listed according to diagnoses. […] Lung cancer, AML and CML had intermediate response rates. The relative effect of VLX50 and six standard cytotoxic drugs, in solid and hematological tumor samples, expressed as the S/H ratio, is shown in FIG. 2b. […] The results for the standard drugs are consistent with their main clinical use.

[7] = system: hollow fiber cultures of PHTC from ovarian carcinoma patients; experiment: In vivo hollow fiber assay, PHTC ovarian carcinoma; design: species or system human; conditions: two PHTC cultures in fibers s.c. in NMRI male mice, single dose 760 μg/mouse s.c., 6 days; P<0.05 and P<0.01
Protocol: In vivo studies. Cells from two ovarian carcinoma patients and the cell line CEM were cultured inside semi-permeable polyvinylidene fluoride fibers and assessed by the hollow fiber assay (Friberg et al., 2005; Jonsson et al., 2000). The fibers were implanted subcutaneously into NMRI male mice (Scanbur, Sollentuna Sweden), which were treated with a single dose (0.76 mg/mouse) of VLX50 subcutaneously, or vehicle only (n=animals/group). Fibers were retrieved after 6 days and cell density evaluated (FIG. 3a) using the MTT (3-[4,5-dimethylthiazol-2-yl]-2,5-diphenyltetrazolium bromide)-assay (Alley et al. 1988). The method is based on the conversion of MTT to blue formazan crystals by living cells. The formazan was extracted by DMSO as previously described (Jonsson et al. 2000), and optical density (OD) read at 570 nm. Cell density for each fiber on retrieval day was expressed as net growth, defined as (OD retrieval day—OD implantation day)/OD implantation day, i.e. the percent change in cell density in the fibers during the 6 days of in vivo experiment. The animals were observed regarding behavior and weight gain throughout the experiment. Blood samples (200 μl) were obtained through the orbital plexus after anesthetization with isofluran just before euthanasia, and analyzed for hematological parameters. […]

[8] = Weight gain and hematological parameters of treated mice; assay type: in vivo, NMRI male mice; conditions: single dose 760 μg/mouse s.c.
Protocol: In vivo studies. Cells from two ovarian carcinoma patients and the cell line CEM were cultured inside semi-permeable polyvinylidene fluoride fibers and assessed by the hollow fiber assay (Friberg et al., 2005; Jonsson et al., 2000). The fibers were implanted subcutaneously into NMRI male mice (Scanbur, Sollentuna Sweden), which were treated with a single dose (0.76 mg/mouse) of VLX50 subcutaneously, or vehicle only (n=animals/group). Fibers were retrieved after 6 days and cell density evaluated (FIG. 3a) using the MTT (3-[4,5-dimethylthiazol-2-yl]-2,5-diphenyltetrazolium bromide)-assay (Alley et al. 1988). The method is based on the conversion of MTT to blue formazan crystals by living cells. The formazan was extracted by DMSO as previously described (Jonsson et al. 2000), and optical density (OD) read at 570 nm. Cell density for each fiber on retrieval day was expressed as net growth, defined as (OD retrieval day—OD implantation day)/OD implantation day, i.e. the percent change in cell density in the fibers during the 6 days of in vivo experiment. The animals were observed regarding behavior and weight gain throughout the experiment. Blood samples (200 μl) were obtained through the orbital plexus after anesthetization with isofluran just before euthanasia, and analyzed for hematological parameters. Four animals were caged per cage and fed a commercial diet (Lactamin AB, Sweden), water being given ad libitum.
In vivo activity in PHTC cultures of ovarian carcinoma. Activity in vivo was determined in hollow fiber cultures of PHTC from ovarian carcinoma patients subcutaneously implanted in mice (FIG. 3a; n=8 each in test and control groups). […] There was no difference in WBC, RBC, and hemoglobin values (FIG. 3c).

- IC50 [2]: 0.035 to 9.4 µM
- IC50 [3]: 0.28 to 40 µM
- IC50 ([4]; n=7, 72 h FMCA, read-out: Median IC50): > 40 µM
- IC50 ([4]; range over n=7 samples, read-out: IC50 Range): 23.8 to 40 µM
- Hemoglobin values [8]: no difference
- RBC [8]: no difference
- WBC [8]: no difference
- Platelet counts ([8]; P<0.05): significant decrease
- Weight gain compared to the control group ([8]; P<0.05): small but significant reduction
Structure (SMILES): COCCCNC(=S)N/N=C\c1ccccn1 [VLX50, N1-(3-methoxypropyl)-2-(pyridylmethylidene)-hydrazine-1-carbothioamide]
- IC50 [1]: 0.055 to 11.2 µM
- IC50 ([5]; n=4, 72 h FMCA, read-out: Median IC50): 8.92 µM
- IC50 ([5]; range over n=4 samples, read-out: IC50 Range): 2.88 to 13.3 µM
- PBMC/CLL median IC50 ratio [6]: 7.6
- Growth inhibition (net growth) compared to vehicle [7]: significant growth inhibition
